# Patent publication US8691576B2, “Regeneration and mass propagation of Jatropha curcas through somatic embryogenesis” (Joil (S) Pte Ltd., priority 2008, dated 2014)
# How the values were obtained:
# Format in all cases: cell-based
# [1] = system: Jatropha curcas calli from zygotic embryo explants; assay: Type II somatic embryo (TIISE) formation after shifting calli to hormone-free DGA medium; conditions: then DGA medium 6 weeks
# Description: Yellowish or white calli were observed on the explants from 3rd week if subcultured in the same medium. Extensively tested variables for induction of somatic embryogenesis were media of numerous compositions. Combinations of MS salt, Gamborg B5 salts, MS vitamins, Gamborg B5 vitamins; presence or absence of NH4NO3; amount of KNO3 (1.9-3.8 g/l); organic nitrogen source, e.g., free amino acids, casein hydrolysate; trace amount of hormones, e.g., kinetin (0-1 mg/l), benzyl adenine (0-1 mg/l); choice of carbon sources, e.g., glucose, sucrose and maltose; and activated carbon (5 g/l). In a large number of media, the calli died within 1-2 weeks when shifted into a new medium. […] An example of the medium is DGA medium in which 1 g/l glutamine and 0.5 g/l asparagines was supplemented. A cluster of somatic embryos of various stages emerged around the 10th day after the medium shift to DGA (FIG. 2).
# Somatic embryos formed in DGA medium underwent multiplication and maturation simultaneously. We called them Type II Somatic Embryos (TIISE). TIISEs were preferentially formed on explants previously cultured in media containing higher concentration of 2,4-D, for example, 2-5 mg/l during the first induction culture (Table 1).
# [2] = system: Jatropha curcas zygotic embryo and endosperm explants; assay: Type I somatic embryo (TISE) formation on solid media with 2,4-D; conditions: for TISE (%) / TISE Count: 0.1 mg/l kinetin, 8 weeks
# Description: Developing fruits were surfaced sterilized. The immature zygotic embryos and endosperms (En) were separated from each other using a surgical scalper blade. Zygotic embryos longer than 0.5 cm were further cut at the cotyledon-hypocotyl junction to produce explants of cotyledons only and hypocotyls with the root radicals. Zygotic embryos shorter than 0.5 cm were cultured intact as they are too fragile. We classified these explants as cotyledons (Cot); hypocotyls with root radicals (Rh); intact embryos (Eb) and endosperm (En).
# The explants were cultured on a solid medium comprising MS salt, B5 vitamins and various concentrations of 2,4-D ranging from 0.1 to 20 mg/L. Kinetin was added at 0.1 mg/L in some of the treatments. Somatic embryos started to emerge without obvious sign of calli formation around 10th day, which predominantly formed on the edge of the endosperm tissues where the embryo had been detached. The somatic embryos most likely originated from the residual diploid cells of the zygotic embryo tissue attached on the endosperm. […] These somatic embryos developed speedily and predominantly matured as single embryo (FIG. 1). We called them Type I Somatic Embryo (TISE).
# [3] = system: Jatropha curcas immature zygotic embryo and endosperm explants; assay: Effect of 2,4-D concentration and zygotic embryo size on somatic embryo and calli formation; design: key to Explant Development Root Length / Explant Development Hypocotyl Length / Explant Development Calli Size: The relative size of explants and calli are indicated by the number of + symbols.; ++: The relative size of explants and calli are indicated by the number of + symbols.; +++: The relative size of explants and calli are indicated by the number of + symbols.; ++++: The relative size of explants and calli are indicated by the number of + symbols.; +++++: The relative size of explants and calli are indicated by the number of + symbols; conditions: end of 3rd week
# Description: Developing fruits were surfaced-sterilized and dissected to yield 200 immature zygotic embryos that were shorter than 1.5 cm in length. The embryos were separated into two groups, “<0.5 cm” and “0.5-1.5 cm”. The endosperm and zygotic embryo explants were cultured on solid media with various concentration of 2,4-D. On the 5th day, the embryos, which became greenish, enlarged and hardened, were removed from the endosperms and cut into small pieces of about 0.25 cm^2 each. The endosperm and embryo explants were cultured separately on the same media in the dark at 28° C. It was confirmed that most somatic embryos were produced on the endosperm explants where the embryos had been detached. It is apparent that, although 2,4-D was not essential for initiation of somatic embryos; […] concentration of it causes excessive expansion of explants.
smiles,measurement,setting,value
"O=C(O)COc1ccc(Cl)cc1Cl [2,4-D, 2,4-dichlorophenoxyacetic acid]",TIISE (%),"[1]; 2,4-D 0.1 mg/L 4 weeks",11%
same,TIISE Count,"[1]; 2,4-D 0.1 mg/L 4 weeks, 19 explants",2
same,TIISE (%),"[1]; 2,4-D 0.2 mg/L 4 weeks",4%
same,TIISE Count,"[1]; 2,4-D 0.2 mg/L 4 weeks, 28 explants",1
same,TIISE (%),"[1]; 2,4-D 0.5 mg/L 4 weeks",19%
same,TIISE Count,"[1]; 2,4-D 0.5 mg/L 4 weeks, 16 explants",3
same,TIISE (%),"[1]; 2,4-D 1 mg/L 4 weeks",0%
same,TIISE Count,"[1]; 2,4-D 1 mg/L 4 weeks, 19 explants",0
same,TIISE (%),"[1]; 2,4-D 2 mg/L 4 weeks",36%
same,TIISE Count,"[1]; 2,4-D 2 mg/L 4 weeks, 25 explants",9
same,TIISE (%),"[1]; 2,4-D 5 mg/L 4 weeks",39%
same,TIISE Count,"[1]; 2,4-D 5 mg/L 4 weeks, 23 explants",9
same,TIISE (%),"[1]; 2,4-D 10 mg/L 4 weeks",24%
same,TIISE Count,"[1]; 2,4-D 10 mg/L 4 weeks, 21 explants",5
same,TIISE (%),"[1]; 2,4-D 20 mg/L 4 weeks",23%
same,TIISE Count,"[1]; 2,4-D 20 mg/L 4 weeks, 13 explants",3
same,TISE (%),"[2]; 2,4-D 0.1 mg/L",84%
same,TISE Count,"[2]; 2,4-D 0.1 mg/L, 19 explants",16
same,TISE (%),"[2]; 2,4-D 0.2 mg/L",54%
same,TISE Count,"[2]; 2,4-D 0.2 mg/L, 28 explants",15
same,TISE (%),"[2]; 2,4-D 0.5 mg/L",50%
same,TISE Count,"[2]; 2,4-D 0.5 mg/L, 16 explants",8
same,TISE (%),"[2]; 2,4-D 1 mg/L",42%
same,TISE Count,"[2]; 2,4-D 1 mg/L, 19 explants",8
same,TISE (%),"[2]; 2,4-D 2 mg/L",76%
same,TISE Count,"[2]; 2,4-D 2 mg/L, 25 explants",19
same,TISE (%),"[2]; 2,4-D 5 mg/L",57%
same,TISE Count,"[2]; 2,4-D 5 mg/L, 23 explants",13
same,TISE (%),"[2]; 2,4-D 10 mg/L",43%
same,TISE Count,"[2]; 2,4-D 10 mg/L, 21 explants",9
same,TISE (%),"[2]; 2,4-D 20 mg/L",38%
same,TISE Count,"[2]; 2,4-D 20 mg/L, 13 explants",5
same,TISE formation,"[2]; 2,4-D 0.1 to 20 mg/L",appeared to be inhibitory at high levels
same,Explant Development Calli Size,"[3]; 2,4-D 0.1 mg/L",++
same,Explant Development Hypocotyl Length,"[3]; 2,4-D 0.1 mg/L",+++++
same,Explant Development Root Length,"[3]; 2,4-D 0.1 mg/L",++++
same,Explant Development Calli Size,"[3]; 2,4-D 0.2 mg/L",++
same,Explant Development Hypocotyl Length,"[3]; 2,4-D 0.2 mg/L",++++
same,Explant Development Root Length,"[3]; 2,4-D 0.2 mg/L",+++
same,Explant Development Calli Size,"[3]; 2,4-D 0.5 mg/L",+++
same,Explant Development Hypocotyl Length,"[3]; 2,4-D 0.5 mg/L",+++
same,Explant Development Root Length,"[3]; 2,4-D 0.5 mg/L",++
same,Explant Development Calli Size,"[3]; 2,4-D 1 mg/L",++++
same,Explant Development Hypocotyl Length,"[3]; 2,4-D 1 mg/L",+++
same,Explant Development Root Length,"[3]; 2,4-D 1 mg/L",++
same,Explant Development Calli Size,"[3]; 2,4-D 2 mg/L",++++
same,Explant Development Hypocotyl Length,"[3]; 2,4-D 2 mg/L",+
same,Explant Development Root Length,"[3]; 2,4-D 2 mg/L",+
same,Explant Development Calli Size,"[3]; 2,4-D 5 mg/L",+++
same,Explant Development Hypocotyl Length,"[3]; 2,4-D 5 mg/L",+
same,Explant Development Root Length,"[3]; 2,4-D 5 mg/L",+
same,Explant Development Calli Size,"[3]; 2,4-D 10 mg/L",+++
same,Explant Development Hypocotyl Length,"[3]; 2,4-D 10 mg/L",+
same,Explant Development Root Length,"[3]; 2,4-D 10 mg/L",+
same,Explant Development Calli Size,"[3]; 2,4-D 15 mg/L",++
same,Explant Development Hypocotyl Length,"[3]; 2,4-D 15 mg/L",+
same,Explant Development Root Length,"[3]; 2,4-D 15 mg/L",+
same,Explant Development Calli Size,"[3]; 2,4-D 20 mg/L",+
same,Explant Development Hypocotyl Length,"[3]; 2,4-D 20 mg/L",+
same,Explant Development Root Length,"[3]; 2,4-D 20 mg/L",+
same,Calli formation,[3],more favorable at about 0.5-10 mg/l
